From paper PMC4760274, “Elongation factor 2 kinase promotes cell survival by inhibiting protein synthesis without inducing autophagy” (Cellular Signalling, 2016) come the findings set out here.

Assay [1] deals with P-eEF2 in A549 cells. The assay can be described thus: eEF2 phosphorylation in A549 cells (western blot). As to conditions: 16 h, AZD8055 1 μM. The assay is classed as cell-based, human. Here is the method:
(§1) After treatment, cells were lysed in ice-cold lysis buffer containing 1% (v/v) Triton X-100 (215680010, Acros Organics), 50 mM Tris (T6066-1KG, Sigma-Aldrich)–HCl (258148-2.5 L, Sigma-Aldrich) pH 7.4, 50 mM NaCl (BP358-212, Fisher Scientific), 0.2 mM EDTA (BP120-500, Fisher Scientific), 0.2 mM EGTA (E1102, Melford), 50 mM β-glycerophosphate (G9422, Sigma-Aldrich), 1 mM Na3VO4 (S6508, Sigma-Aldrich), 15 mM β-mercaptoethanol (125472500, Acros Organics) and 1 × protease inhibitor cocktail (5056489001, Roche). Lysates were spun at 16,000 × g for 10 min at 4 °C; the supernatants were kept and total protein concentration was quantified by Bradford assay following the manufacturer's instructions.
(§2) These procedures were performed as described previously.
Cells were then treated with 10 mM 2-deoxyglucose (2DG), rapamycin (100 nM), AZD8055 (1 μM) or MG132 (10 μM) for 16 h. Cells were then lysed and samples containing equal amounts of protein were analysed by western blot using the indicated antibodies. Values given below each lane show quantitation of the signal for LC3II, corrected for the actin signal from multiple experiments as in (A) expressed as LC3II normalized to actin, mean ± SEM (control cells without treatment = 1; n = 3). (B) A549 cells were cultured as in (A) to induce eEF2K knockdown. A549 cells were transiently transfected with the GST-BHMT construct and maintained in full media in the presence or absence of AZD8055 (1 μM) for 16 h, in the presence of leupeptin and E64d. GST-BHMT was precipitated with glutathione agarose from the whole cell extracts (bottom panel). Values given below show the quantitation of data from multiple experiments as in (B) expressed as the level of BHMT fragment normalized to the control without IPTG, mean ± SEM (control cells without treatment = 1; n = 3). Values given below each lane show quantitation of the signal for P-eEF2, corrected for the eEF2 signal from multiple experiments as in (B) expressed as P-eEF2 normalized to eEF2, mean ± SEM (control cells without treatment = 1; n = 3). (C) Cells were treated as described in Supplemental Fig. S3, visualized by confocal microscopy and the rate of autophagosome–lysosome fusion was measured according to green/red fluorescence ratio which reflect the percentage of unfused LC3. Scale bar = 20 μm. (D) Data quantification of C, data are presented as means ± SEM. (n = 5) ***P < 0.001, obtained by two-way ANOVA (Dunnett's test). (E) Untransfected A549 cells were treated with AZD8055 and BafA1 as described in A, cell lysates were collected at T0, 1 and 3 h for immunoblotting analysis. Values given below each lane show quantitation of the signal for LC3II, corrected for the LC3I signal from multiple experiments as in (E) expressed as LC3II normalized to LC3I, mean ± SEM (control cells without treatment = 1; n = 3).
(A western blot detects proteins with antibodies after separation by electrophoresis.)

The test system of assay [2] is autolysosome formation in A549 cells. The assay can be described thus: autophagic flux analysis with mCherry-EGFP-LC3B in A549 cells. The assay is classed as cell-based, human. As to conditions: AZD8055 1 μM, after release from BafA1, Fig. 2C, D. Here is the method: A549 cells were transfected with a vector encoding mCherry-EGFP-LC3B, a tandem fluorescent-tagged LC3 (a kind gift from Dr. Terje Johansen, Biochemistry Department, Institute of Medical Biology, University of Tromsø, Norway), using lipofectamine 3000 (L3000001, Life technologies) following manufacturer's instructions. After treatment cells were washed twice in phosphate buffered saline (PBS, 18912-014, Gibco) and then fixed in 4% formaldehyde (F8775, Sigma-Aldrich) for 15 min. Fixed cells were washed thrice in PBS and permeabilized with 0.1% Triton-X 100 for 5 min. Cells were then again washed thrice in PBS and mounted in ProLong® Gold Antifade Mountant (P36935, Life technologies). Cells were visualized using Leica TCS SP8X/MP microscope equipped with a tuneable white light laser using a 40 × oil immersion objective lens (NA = 1.30) numerical aperture objective. Green/red fluorescence ratio (GFP loss upon autolysosome formation) was measured using the Leica Application Suite X (LAS X) software (version 1.1.0).
We also examined the progression of autolysosome formation using a tandem fluorescently-tagged LC3 (mCherry-EGFP-LC3B) which allowed us to determine autophagosome and lysosome fusion by evaluating loss of GFP fluorescence. Green (GFP) but not red (mCherry) fluorescence is quenched by protonation in response to acidified intra-lysosomal pH upon autolysosome fusion. […]

Assay [3] deals with LC3II in A549 cells. The assay can be described thus: LC3 modification in A549 cells (western blot). The assay is classed as cell-based, human. The following applies: untransfected A549; AZD8055 1 μM; Fig. 2E. Here is the method: as §1, §2
Cells were then treated with 10 mM 2-deoxyglucose (2DG), rapamycin (100 nM), AZD8055 (1 μM) or MG132 (10 μM) for 16 h. Cells were then lysed and samples containing equal amounts of protein were analysed by western blot using the indicated antibodies. Values given below each lane show quantitation of the signal for LC3II, corrected for the actin signal from multiple experiments as in (A) expressed as LC3II normalized to actin, mean ± SEM (control cells without treatment = 1; n = 3). (B) A549 cells were cultured as in (A) to induce eEF2K knockdown. […] (D) Data quantification of C, data are presented as means ± SEM. […]

The test system of assay [4] is GST-BHMT cleavage (autophagic flux) in A549 cells. The assay can be described thus: GST-BHMT cleavage assay in A549 cells. The assay is classed as cell-based, human. The following applies: AZD8055 1 μM, 16 h, Fig. 2B.
Description: Cells were lysed as above. […] The precipitated GST-BHMT was washed three times in the ice cold lysis buffer. Precipitates were then boiled in SDS-PAGE sample buffer, resolved by SDS-PAGE and analysed by western blotting using anti-GST antibody.
Cells were then treated with 10 mM 2-deoxyglucose (2DG), rapamycin (100 nM), AZD8055 (1 μM) or MG132 (10 μM) for 16 h. Cells were then lysed and samples containing equal amounts of protein were analysed by western blot using the indicated antibodies. […] (B) A549 cells were cultured as in (A) to induce eEF2K knockdown. A549 cells were transiently transfected with the GST-BHMT construct and maintained in full media in the presence or absence of AZD8055 (1 μM) for 16 h, in the presence of leupeptin and E64d. GST-BHMT was precipitated with glutathione agarose from the whole cell extracts (bottom panel). […] (E) Untransfected A549 cells were treated with AZD8055 and BafA1 as described in A, cell lysates were collected at T0, 1 and 3 h for immunoblotting analysis.
The subject of assay [5] is TSC2−/− MEFs. The assay is described as follows: caspase 3/7 assay in TSC2−/− MEFs. As to conditions: TSC2−/− cells; rapamycin 20 nM; 48 h; Fig. 4B. Format: cell-based, mouse. Here is the method:
Caspase 3/7 assays (G8090, Promega) were performed according to the manufacturer's instructions. Briefly, 10,000 cells/well were plated overnight in a 96-well plate. Cells were treated as described in the figure legends for the indicated time period. To measure caspase 3/7 activity, 50 μL of caspase Glo 3/7 reagent was added to each well for 2 h with constant shaking at room temperature. Luminescence was measured using a BMG Labtech FLUOstar Optimi plate reader. Cytotoxicity was evaluated by CellTox Green® cytotoxicity assay (Promega). Briefly, 10,000 cells/well were plated overnight in a 96-well plate. Cells were treated as described in the figure legends for the indicated time period. Fluorescence was measured at 485–500 nmEx/520–530 nmEm using a BMG Labtech FLUOstar Optimi plate reader.
(§3) Fig. 4 eEF2K aids the survival of TSC2^−/− cells under glucose-starved conditions. […] Cells were then lysed and samples containing equal amounts of protein were analysed by western blot using the indicated antibodies. Values given below each lane show quantitation of the signal for LC3II, corrected for the actin signal or P-eEF2, corrected for the eEF2 signal from multiple experiments as in (A), mean ± SEM (control cells without treatment = 1; n = 3). (B) Cells were treated for 48 h as described in (A), except that they were processed for caspase 3/7 assay. […]

The subject of assay [6] is P-eEF2 in TSC2−/− MEFs. The assay is described as follows: eEF2 phosphorylation in TSC2−/− MEFs (western blot). The assay is classed as cell-based, mouse. As to conditions: TSC2−/− cells starved of glucose; rapamycin 20 nM; Fig. 4A. Here is the method: as §1, with “instructions. […]” for “instructions.”
as §3, with “[…] The − signs of the Glucose row are barely visible, so the condition given” for “(B) Cells were treated”, “each lane is my best reading. / Panel A: which number belongs to which lane or group (Con, JAN-613, JAN-384) is judged from horizontal position only.” for “48 h as described in (A), except that they were processed for caspase 3/7 assay.”

Where [7] appears, read: 2DG 10 mM, rapamycin 100 nM, MG132 10 μM, Fig. 2A.

Molecules are shown by their SMILES.

For the compound `COc1ccc(-c2ccc3c(N4CCOC[C@@H]4C)nc(N4CCOC[C@@H]4C)nc3n2)cc1CO` [AZD8055], the “phosphorylation of eEF2” value in assay [1] (setting [7]) is recorded as “induced the phosphorylation of eEF2”; in assay [1] (Fig. 2B), “marked increase”. In assay [2], the “green/red ratio (mCherry-EGFP-LC3B) in comparison to control cells” value is recorded as “remained low”. In addition, in assay [3], the LC3II/I ratio result was “further increase”. In addition, the “cleavage of GST-BHMT” value in assay [4] is given as “marked increase”.

Take `CO[C@H]1C[C@@H]2CC[C@@H](C)[C@@](O)(O2)C(=O)C(=O)N2CCCC[C@H]2C(=O)O[C@H]([C@H](C)C[C@@H]2CC[C@@H](O)[C@H](OC)C2)CC(=O)[C@H](C)/C=C(\C)[C@@H](O)[C@@H](OC)C(=O)[C@H](C)C[C@H](C)/C=C/C=C/C=C/1C` [rapamycin]: in assay [5], the “adverse effect of glucose starvation (caspase 3/7 activity) countered” value is on record as “fully” and the “caspase activity in control conditions” value is “decreased”. In addition, the “phosphorylation of eEF2” value in assay [1] (setting [7]) is given as “induced the phosphorylation of eEF2”. The eEF2 phosphorylation result in assay [6] is given as “large increase”.
